Results reported in patent US20250002695A1, “COMPOSITIONS COMPRISING CATIONIC ALPHA-1,6-GLUCAN DERIVATIVE AND ALPHA-1,3-GLUCAN” (Nutrition & Biosciences USA 4, Inc., priority 2021, published 2025).
In brackets after ≈: the same amount, converted by molar mass. Read-outs that look alike come from different tables or passages of the source.

Columns and labels:
Experiment in all cases: Minimum Inhibitory Concentration (MIC) test
Type in all cases: cell-based
[1] = tested on: Staphylococcus epidermidis (ATCC 12228); settings: read-out: Minimum Inhibitory Concentration
Description: (§1) Antimicrobial activity assessment of alpha-1,6-glucan ether compounds herein and other compounds were carried out using a standard MIC protocol. Each test compound was evaluated in two sets, one at 50-5000 ppm (high MIC actives) and the other at 3.125-100 ppm (low MIC actives). All active samples, with the exception of chitosan, were dissolved in DI water at a concentration of 1% w/v for the […] set; chitosan was instead dissolved in water acidified to pH 3.5 with hydrochloric acid. Each test compound was then serially diluted to concentrations of 0.4%, 0.2%, 0.1%, 0.04%, 0.02% and 0.01% (w/v). For the 3.125-100 ppm set, all test compounds were prepared similarly at a concentration 0.1% w/v, and then serially diluted to concentrations of 0.05%, 0.025%, 0.0125%, 0.00625% and 0.003125% (w/v). Bacteria inocula were prepared by diluting overnight cultures 1:20 in trypticase soy broth media (TSB). Yeast and mold were prepared by diluting overnight culture or monthly stock (1×10^8 cells per mL) 1:20 in potato dextrose broth media (PDB). 96-well plates were used in this test. First, 180 μL of plating media was added to each well. Next, each well received 20 μL water (control) or test compound at a specified concentration according to concentration range to be tested. Each sample was tested in triplicate. Lastly, each well received 20 μL of bacteria or fungi inoculum. Bacterial plates were incubated at 30° C. for 24 hours. Yeast and mold plates were incubated at 25° C.; yeast plates were incubated for 24 hours and mold plates were incubated for 7 days.

[2] = tested on: Candida albicans (ATCC 10231); settings: read-out: Minimum Inhibitory Concentration
Description: as §1

[3] = tested on: Pseudomonas putida (ATCC 49128); settings: read-out: Minimum Inhibitory Concentration
Description: as §1

[4] = tested on: Staphylococcus aureus (ATCC 6538); settings: read-out: Minimum Inhibitory Concentration
Description: as §1

[5] = tested on: Burkholderia cepacia (ATCC 25416); settings: read-out: Minimum Inhibitory Concentration
Description: as §1

[6] = tested on: Enterobacter gergoviae (ATCC 33028); settings: Pluralibacter gergoviae, read-out: Minimum Inhibitory Concentration
Description: as §1

[7] = tested on: Escherichia coli (ATCC 8739); settings: read-out: Minimum Inhibitory Concentration
Description: as §1

[8] = tested on: Aspergillus brasiliensis (ATCC 16404); settings: ATCC16404, 168 h, read-out: Minimum Inhibitory Concentration
Description: as §1

[9] = tested on: Pseudomonas aeruginosa (ATCC 9027); settings: read-out: Minimum Inhibitory Concentration
Description: as §1

[10] = tested on: Pseudomonas aeruginosa (ATCC 15442); settings: read-out: Minimum Inhibitory Concentration
Description: as §1

[11] = tested on: Klebsiella pneumoniae (ATCC 13883); settings: read-out: Minimum Inhibitory Concentration
Description: as §1

Structure (SMILES): CCCCCCCCCCCC[N+](C)(C)C.[Cl-] [Comp. 11, Dodecyltrimethylammonium chloride]
- MIC ([1]; ATCC12228, 24 h): 100 µg/mL
- MIC ([2]; ATCC10231, 24 h): 200 µg/mL
- MIC ([3]; ATCC49128, 24 h): 500 µg/mL
- MIC ([4]; ATCC6538, 24 h): 200 µg/mL
- MIC ([5]; ATCC25416, 24 h): 1000 µg/mL
- MIC ([6]; ATCC33028, 24 h): 500 µg/mL
- MIC ([7]; ATCC8739, 24 h): 200 µg/mL
- MIC [8]: 1000 µg/mL
- MIC ([9]; ATCC9027, 24 h): 500 µg/mL
- MIC ([10]; ATCC15442, 24 h): 500 µg/mL
- MIC ([11]; ATCC13883, 24 h): 500 µg/mL

Structure (SMILES): CCCCCCCCCCCC(=O)N[C@@H](CCCNC(=N)N)C(=O)OCC [Comp. 13, Lauroyl arginine ethyl ester]
- MIC ([1]; ATCC12228, S. epidermidis ATCC 12228, 30° C., 24 hours): 12.5 µg/mL (≈ 32.5 µM)
- MIC ([2]; ATCC10231, C. albicans ATCC 10231, 25° C., 24 hours): 100 µg/mL (≈ 260 µM)
- MIC ([3]; ATCC49128, P. putida ATCC 49128, 30° C., 24 hours): 25 µg/mL (≈ 65 µM)
- MIC ([4]; ATCC6538, S. aureus ATCC 6538, 30° C., 24 hours): 12.5 µg/mL (≈ 32.5 µM)
- MIC ([5]; ATCC25416, B. cepacia ATCC 25416, 30° C., 24 hours): 100 µg/mL (≈ 260 µM)
- MIC ([6]; ATCC33028, E. gergoviae ATCC 33028, 30° C., 24 hours): 100 µg/mL (≈ 260 µM)
- MIC ([7]; ATCC8739, E. coli ATCC 8739, 30° C., 24 hours): 50 µg/mL (≈ 130 µM)
- MIC ([8]; A. brasiliensis ATCC 16404, 25° C., 7 days): 100 µg/mL (≈ 260 µM)
- MIC ([9]; ATCC9027, P. aeruginosa ATCC 9027, 30° C., 24 hours): 50 µg/mL (≈ 130 µM)
- MIC ([10]; ATCC15442, P. aeruginosa ATCC 15442, 30° C., 24 hours): 50 µg/mL (≈ 130 µM)
- MIC ([11]; ATCC13883, K. pneumoniae ATCC 13883, 30° C., 24 hours): 50 µg/mL (≈ 130 µM)
